Key:
Assay in all cases: radiometric filter-binding kinase assay
HIPK1 (human) = HIPK1 (human) (UniProt Q86Z02)
HIPK2 (human) = HIPK2 (human) (UniProt Q9H2X6)
EPHB1 (human) = EPHB1 (human) (UniProt P54762)
PRKCA (human) = PRKCA (human) (UniProt P17252)
DYRK3 (human) = DYRK3 (human) (UniProt O43781)
INSR (human) = INSR (human) (UniProt P06213)
AURKA (human) = AURKA (human) (UniProt O14965)
DYRK2 (human) = DYRK2 (human) (UniProt Q92630)
GCK (human) = GCK (human) (UniProt Q12851)
BTK (human) = BTK (human) (UniProt Q06187)
Chain of BTK (human) (Q06187 whole entry, looked up): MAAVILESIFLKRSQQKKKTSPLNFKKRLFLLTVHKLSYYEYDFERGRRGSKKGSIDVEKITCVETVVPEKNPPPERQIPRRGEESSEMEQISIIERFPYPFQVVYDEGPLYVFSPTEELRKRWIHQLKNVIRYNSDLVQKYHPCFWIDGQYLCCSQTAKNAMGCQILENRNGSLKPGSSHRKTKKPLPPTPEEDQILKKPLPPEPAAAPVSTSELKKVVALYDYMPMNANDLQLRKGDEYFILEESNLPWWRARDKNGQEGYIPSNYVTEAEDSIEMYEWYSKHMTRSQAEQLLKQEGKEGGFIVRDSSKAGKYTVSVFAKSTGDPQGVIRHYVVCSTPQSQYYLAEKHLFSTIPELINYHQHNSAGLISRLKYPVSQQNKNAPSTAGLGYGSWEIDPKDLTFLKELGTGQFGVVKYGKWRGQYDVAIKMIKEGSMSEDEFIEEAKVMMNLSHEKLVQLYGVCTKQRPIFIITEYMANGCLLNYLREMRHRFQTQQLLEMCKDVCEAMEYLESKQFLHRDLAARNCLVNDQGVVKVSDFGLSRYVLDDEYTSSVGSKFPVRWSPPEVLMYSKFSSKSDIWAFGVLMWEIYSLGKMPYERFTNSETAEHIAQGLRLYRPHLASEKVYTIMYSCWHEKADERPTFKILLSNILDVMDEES

MAPKAPK5 (human) = MAPKAPK5 (human) (UniProt Q8IW41)
MAPK8 (human) = MAPK8 (human) (UniProt P45983)
TAOK1 (human) = TAOK1 (human) (UniProt Q7L7X3)
JAK2 JH1 JH2 (human) = JAK2 JH1 JH2 (human) (UniProt O60674)
YES1 (human) = YES1 (human) (UniProt P07947)
EPHB4 (human) = EPHB4 (human) (UniProt P54760)
SYK (human) = SYK (human) (UniProt P43405)
[1] = test system: AKT1 (human), P31749 [S473D]
EPHB2 (human) = EPHB2 (human) (UniProt P29323)
[2] = test system: RPS6KB1 (human), P23443 [T412E]
Chain of RPS6KB1 (human), P23443 [T412E] (P23443 whole entry T412E, looked up): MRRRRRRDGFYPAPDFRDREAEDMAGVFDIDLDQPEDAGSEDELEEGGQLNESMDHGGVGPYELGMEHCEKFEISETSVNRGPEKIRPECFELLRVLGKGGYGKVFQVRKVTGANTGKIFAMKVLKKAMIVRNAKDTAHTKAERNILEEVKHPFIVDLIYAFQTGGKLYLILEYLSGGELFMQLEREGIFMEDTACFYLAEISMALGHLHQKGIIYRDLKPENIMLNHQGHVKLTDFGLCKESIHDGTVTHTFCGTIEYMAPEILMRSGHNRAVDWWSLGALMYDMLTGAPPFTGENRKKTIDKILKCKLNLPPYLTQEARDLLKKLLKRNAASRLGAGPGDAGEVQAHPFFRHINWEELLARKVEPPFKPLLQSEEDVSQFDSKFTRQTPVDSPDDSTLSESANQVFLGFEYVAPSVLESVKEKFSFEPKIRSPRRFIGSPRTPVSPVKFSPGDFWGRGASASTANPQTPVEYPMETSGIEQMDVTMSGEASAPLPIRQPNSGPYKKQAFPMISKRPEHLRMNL

MAP3K11 (human) = MAP3K11 (human) (UniProt Q16584)
MAP3K1 (human) = MAP3K1 (human) (UniProt Q13233)
MAPK11 (human) = MAPK11 (human) (UniProt Q15759)
Chain of MAPK11 (human) (Q15759 whole entry, looked up): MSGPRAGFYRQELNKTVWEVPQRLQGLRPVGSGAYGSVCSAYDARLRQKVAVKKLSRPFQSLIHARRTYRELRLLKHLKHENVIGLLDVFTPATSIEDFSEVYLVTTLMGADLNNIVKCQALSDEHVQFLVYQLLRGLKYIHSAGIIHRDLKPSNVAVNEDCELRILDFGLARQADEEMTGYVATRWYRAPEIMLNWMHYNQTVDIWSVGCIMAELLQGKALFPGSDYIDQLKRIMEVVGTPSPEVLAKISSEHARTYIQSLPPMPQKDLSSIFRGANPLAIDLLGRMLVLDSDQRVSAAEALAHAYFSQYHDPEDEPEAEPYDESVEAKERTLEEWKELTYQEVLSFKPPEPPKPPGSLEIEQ

MAP2K1 (human) = MAP2K1 (human) (UniProt Q02750)
Chain of MAP2K1 (human) (Q02750 whole entry, looked up): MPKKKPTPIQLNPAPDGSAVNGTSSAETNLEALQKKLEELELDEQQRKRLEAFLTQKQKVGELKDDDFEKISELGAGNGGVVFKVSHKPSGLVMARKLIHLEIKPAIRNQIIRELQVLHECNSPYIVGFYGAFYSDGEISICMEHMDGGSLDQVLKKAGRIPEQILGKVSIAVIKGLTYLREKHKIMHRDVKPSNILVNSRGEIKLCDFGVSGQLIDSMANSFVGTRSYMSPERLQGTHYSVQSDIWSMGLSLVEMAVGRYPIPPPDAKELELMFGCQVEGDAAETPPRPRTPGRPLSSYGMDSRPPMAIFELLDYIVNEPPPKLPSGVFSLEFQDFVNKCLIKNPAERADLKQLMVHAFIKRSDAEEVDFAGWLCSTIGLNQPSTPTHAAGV

PIM1 (human) = PIM1 (human) (UniProt P11309)
BRSK2 (human) = BRSK2 (human) (UniProt Q8IWQ3)
EPHA2 (human) = EPHA2 (human) (UniProt P29317)
CaMK1 (human) = CaMK1 (human) (UniProt Q14012)
Chain of CaMK1 (human) (Q14012 whole entry, looked up): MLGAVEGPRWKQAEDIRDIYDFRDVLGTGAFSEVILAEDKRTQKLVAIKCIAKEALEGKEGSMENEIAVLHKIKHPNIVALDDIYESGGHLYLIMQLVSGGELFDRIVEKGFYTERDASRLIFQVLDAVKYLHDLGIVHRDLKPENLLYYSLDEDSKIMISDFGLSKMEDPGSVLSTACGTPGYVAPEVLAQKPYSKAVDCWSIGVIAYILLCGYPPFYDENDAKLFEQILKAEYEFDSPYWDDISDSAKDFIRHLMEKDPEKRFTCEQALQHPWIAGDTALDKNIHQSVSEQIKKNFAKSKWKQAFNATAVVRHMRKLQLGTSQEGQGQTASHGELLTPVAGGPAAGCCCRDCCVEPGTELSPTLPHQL

MAP3K5 (human) = MAP3K5 (human) (UniProt Q99683)
MARK3 (human) = MARK3 (human) (UniProt P27448)
FLT1 (human) = FLT1 (human) (UniProt P17948)
BRSK1 (human) = BRSK1 (human) (UniProt Q8TDC3)
MAPK10 (human) = MAPK10 (human) (UniProt P53779)
MAPK9 (human) = MAPK9 (human) (UniProt P45984)
STK3 (human) = STK3 (human) (UniProt Q13188)
TBK1 (human) = TBK1 (human) (UniProt Q9UHD2)
Chain of TBK1 (human) (Q9UHD2 whole entry, looked up): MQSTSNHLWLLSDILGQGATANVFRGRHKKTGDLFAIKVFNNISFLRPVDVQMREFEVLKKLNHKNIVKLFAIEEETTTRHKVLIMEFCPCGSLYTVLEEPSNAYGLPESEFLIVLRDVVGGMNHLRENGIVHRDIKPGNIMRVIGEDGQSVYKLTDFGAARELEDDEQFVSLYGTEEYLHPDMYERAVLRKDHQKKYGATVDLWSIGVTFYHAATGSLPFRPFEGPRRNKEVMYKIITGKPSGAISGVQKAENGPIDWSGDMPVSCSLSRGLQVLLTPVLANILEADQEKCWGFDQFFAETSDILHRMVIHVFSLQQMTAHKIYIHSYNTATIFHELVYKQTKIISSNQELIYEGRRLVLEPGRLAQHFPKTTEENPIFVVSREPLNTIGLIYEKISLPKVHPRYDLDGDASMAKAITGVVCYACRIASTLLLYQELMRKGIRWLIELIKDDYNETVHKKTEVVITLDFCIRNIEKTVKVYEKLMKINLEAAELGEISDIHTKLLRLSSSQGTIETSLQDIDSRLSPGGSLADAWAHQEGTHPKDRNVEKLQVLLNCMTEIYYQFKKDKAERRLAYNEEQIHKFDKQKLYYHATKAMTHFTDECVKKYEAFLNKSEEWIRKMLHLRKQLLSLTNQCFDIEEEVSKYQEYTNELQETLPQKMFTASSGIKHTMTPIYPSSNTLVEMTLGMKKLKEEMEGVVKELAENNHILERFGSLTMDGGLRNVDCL

Chain of INSR (human) (P06213 whole entry, looked up): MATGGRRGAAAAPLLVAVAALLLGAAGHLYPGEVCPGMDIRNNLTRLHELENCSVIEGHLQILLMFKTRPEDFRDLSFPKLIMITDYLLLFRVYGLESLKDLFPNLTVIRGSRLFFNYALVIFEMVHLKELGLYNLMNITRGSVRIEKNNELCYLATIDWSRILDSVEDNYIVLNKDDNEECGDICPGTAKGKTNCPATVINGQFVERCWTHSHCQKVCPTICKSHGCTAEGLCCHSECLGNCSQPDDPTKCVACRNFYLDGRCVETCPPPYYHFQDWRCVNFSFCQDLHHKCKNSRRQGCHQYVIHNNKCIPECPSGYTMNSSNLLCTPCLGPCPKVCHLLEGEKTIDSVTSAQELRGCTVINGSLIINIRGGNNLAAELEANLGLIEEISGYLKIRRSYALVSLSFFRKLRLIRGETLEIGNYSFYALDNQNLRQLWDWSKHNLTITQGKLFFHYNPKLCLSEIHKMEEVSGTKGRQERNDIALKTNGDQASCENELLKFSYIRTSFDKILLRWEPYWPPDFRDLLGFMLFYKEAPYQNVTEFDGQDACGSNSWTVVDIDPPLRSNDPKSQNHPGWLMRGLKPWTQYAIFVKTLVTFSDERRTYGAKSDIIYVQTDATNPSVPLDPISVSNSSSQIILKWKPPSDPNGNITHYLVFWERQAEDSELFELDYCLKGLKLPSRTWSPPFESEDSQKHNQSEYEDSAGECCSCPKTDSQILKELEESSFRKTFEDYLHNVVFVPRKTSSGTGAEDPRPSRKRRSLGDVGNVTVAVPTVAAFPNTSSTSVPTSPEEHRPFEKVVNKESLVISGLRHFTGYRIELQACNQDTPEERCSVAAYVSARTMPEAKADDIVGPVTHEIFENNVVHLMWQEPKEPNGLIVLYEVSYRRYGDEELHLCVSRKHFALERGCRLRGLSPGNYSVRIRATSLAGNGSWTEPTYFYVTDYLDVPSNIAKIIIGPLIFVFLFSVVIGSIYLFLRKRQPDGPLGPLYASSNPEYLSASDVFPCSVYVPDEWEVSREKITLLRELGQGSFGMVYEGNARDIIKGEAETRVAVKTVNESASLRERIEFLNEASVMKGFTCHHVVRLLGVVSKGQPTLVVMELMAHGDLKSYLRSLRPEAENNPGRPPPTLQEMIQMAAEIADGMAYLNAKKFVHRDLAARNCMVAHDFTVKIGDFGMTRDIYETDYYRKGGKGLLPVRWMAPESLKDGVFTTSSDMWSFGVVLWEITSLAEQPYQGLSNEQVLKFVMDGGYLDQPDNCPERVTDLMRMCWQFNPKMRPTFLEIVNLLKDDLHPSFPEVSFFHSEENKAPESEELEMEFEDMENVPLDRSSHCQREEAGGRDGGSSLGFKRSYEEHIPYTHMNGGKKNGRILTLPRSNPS
Chain of DYRK3 (human) (O43781 whole entry, looked up): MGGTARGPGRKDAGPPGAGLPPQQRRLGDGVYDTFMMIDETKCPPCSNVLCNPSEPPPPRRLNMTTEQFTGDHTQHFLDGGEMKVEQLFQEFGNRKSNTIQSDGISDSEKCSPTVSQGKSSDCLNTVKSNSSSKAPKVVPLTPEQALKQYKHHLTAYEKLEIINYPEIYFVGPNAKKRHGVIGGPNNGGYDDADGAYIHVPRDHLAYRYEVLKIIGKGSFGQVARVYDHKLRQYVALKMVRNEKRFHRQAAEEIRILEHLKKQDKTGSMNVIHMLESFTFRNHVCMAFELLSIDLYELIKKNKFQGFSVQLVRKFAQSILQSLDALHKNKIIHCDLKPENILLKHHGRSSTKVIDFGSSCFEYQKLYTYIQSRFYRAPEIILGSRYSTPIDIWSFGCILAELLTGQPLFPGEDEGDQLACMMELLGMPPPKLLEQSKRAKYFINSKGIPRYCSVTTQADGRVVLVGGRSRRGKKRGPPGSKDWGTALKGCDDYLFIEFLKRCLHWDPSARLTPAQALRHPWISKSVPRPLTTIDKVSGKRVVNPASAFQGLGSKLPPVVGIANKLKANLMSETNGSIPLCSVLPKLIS

Q: Which results are given for `O=C(Nc1ccccc1-c1cn2c(CN3CCNCC3)csc2n1)c1cnc2ccccc2n1`?
A: residual activity (HIPK1 (human); compound 1.0 µM): 104%; residual activity (HIPK1 (human); compound 10.0 µM): 91%; residual activity (HIPK2 (human); compound 1.0 µM): 86%; residual activity (HIPK2 (human); compound 10.0 µM): 38%; residual activity (EPHB1 (human); compound 1.0 µM): 102%; residual activity (EPHB1 (human); compound 10.0 µM): 88%; residual activity (PRKCA (human); compound 0.1 µM): 114%; residual activity (PRKCA (human); compound 1.0 µM): 106%; residual activity (PRKCA (human); compound 10.0 µM): 80%; residual activity (DYRK3 (human); compound 0.1 µM): 82%; residual activity (DYRK3 (human); compound 1.0 µM): 91%; residual activity (DYRK3 (human); compound 10.0 µM): 64%; residual activity (INSR (human); compound 0.1 µM): 127%; residual activity (INSR (human); compound 1.0 µM): 101%; residual activity (INSR (human); compound 10.0 µM): 100%; residual activity (AURKA (human); compound 1.0 µM): 102%; residual activity (AURKA (human); compound 10.0 µM): 94%; residual activity (DYRK2 (human); compound 0.1 µM): 98%; residual activity (DYRK2 (human); compound 1.0 µM): 94%; residual activity (DYRK2 (human); compound 10.0 µM): 94%; residual activity (GCK (human); compound 1.0 µM): 102%; residual activity (GCK (human); compound 10.0 µM): 99%; residual activity (BTK (human); compound 0.1 µM): 88%; residual activity (BTK (human); compound 1.0 µM): 99%; residual activity (BTK (human); compound 10.0 µM): 79%; residual activity (MAPKAPK5 (human); compound 0.1 µM): 101%; residual activity (MAPKAPK5 (human); compound 1.0 µM): 91%; residual activity (MAPKAPK5 (human); compound 10.0 µM): 105%; residual activity (MAPK8 (human); compound 0.1 µM): 116%; residual activity (MAPK8 (human); compound 1.0 µM): 103%; residual activity (MAPK8 (human); compound 10.0 µM): 86%; residual activity (TAOK1 (human); compound 1.0 µM): 86%; residual activity (TAOK1 (human); compound 10.0 µM): 97%; residual activity (JAK2 JH1 JH2 (human); compound 1.0 µM): 90%; residual activity (JAK2 JH1 JH2 (human); compound 10.0 µM): 86%; residual activity (YES1 (human); compound 0.1 µM): 69%; residual activity (YES1 (human); compound 1.0 µM): 82%; residual activity (YES1 (human); compound 10.0 µM): 80%; residual activity (EPHB4 (human); compound 1.0 µM): 96%; residual activity (EPHB4 (human); compound 10.0 µM): 103%; residual activity (SYK (human); compound 0.1 µM): 109%; residual activity (SYK (human); compound 1.0 µM): 93%; residual activity (SYK (human); compound 10.0 µM): 67%; residual activity ([1]; compound 0.1 µM): 86%; residual activity ([1]; compound 1.0 µM): 91%; residual activity ([1]; compound 10.0 µM): 88%; residual activity (EPHB2 (human); compound 1.0 µM): 82%; residual activity (EPHB2 (human); compound 10.0 µM): 84%; residual activity ([2]; compound 0.1 µM): 86%; residual activity ([2]; compound 1.0 µM): 111%; residual activity ([2]; compound 10.0 µM): 61%; residual activity (MAP3K11 (human); compound 1.0 µM): 88%; residual activity (MAP3K11 (human); compound 10.0 µM): 56%; residual activity (MAP3K1 (human); compound 1.0 µM): 92%; residual activity (MAP3K1 (human); compound 10.0 µM): 45%; residual activity (MAPK11 (human); compound 0.1 µM): 102%; residual activity (MAPK11 (human); compound 1.0 µM): 89%; residual activity (MAPK11 (human); compound 10.0 µM): 90%; residual activity (MAP2K1 (human); compound 0.1 µM): 91%; residual activity (MAP2K1 (human); compound 1.0 µM): 95%; residual activity (MAP2K1 (human); compound 10.0 µM): 87%; residual activity (PIM1 (human); compound 0.1 µM): 40%; residual activity (PIM1 (human); compound 1.0 µM): 18%; residual activity (PIM1 (human); compound 10.0 µM): 10%; residual activity (BRSK2 (human); compound 0.1 µM): 86%; residual activity (BRSK2 (human); compound 1.0 µM): 97%; residual activity (BRSK2 (human); compound 10.0 µM): 90%; residual activity (EPHA2 (human); compound 0.1 µM): 97%; residual activity (EPHA2 (human); compound 1.0 µM): 99%; residual activity (EPHA2 (human); compound 10.0 µM): 84%; residual activity (CaMK1 (human); compound 0.1 µM): 109%; residual activity (CaMK1 (human); compound 1.0 µM): 83%; residual activity (CaMK1 (human); compound 10.0 µM): 22%; residual activity (MAP3K5 (human); compound 1.0 µM): 98%; residual activity (MAP3K5 (human); compound 10.0 µM): 100%; residual activity (MARK3 (human); compound 0.1 µM): 100%; residual activity (MARK3 (human); compound 1.0 µM): 108%; residual activity (MARK3 (human); compound 10.0 µM): 99%; residual activity (FLT1 (human); compound 0.1 µM): 90%; residual activity (FLT1 (human); compound 1.0 µM): 89%; residual activity (FLT1 (human); compound 10.0 µM): 53%; residual activity (BRSK1 (human); compound 1.0 µM): 94%; residual activity (BRSK1 (human); compound 10.0 µM): 87%; residual activity (MAPK10 (human); compound 1.0 µM): 105%; residual activity (MAPK10 (human); compound 10.0 µM): 89%; residual activity (MAPK9 (human); compound 0.1 µM): 101%; residual activity (MAPK9 (human); compound 1.0 µM): 93%; residual activity (MAPK9 (human); compound 10.0 µM): 87%; residual activity (STK3 (human); compound 0.1 µM): 85%; residual activity (STK3 (human); compound 1.0 µM): 96%; residual activity (STK3 (human); compound 10.0 µM): 92%; residual activity (TBK1 (human); compound 0.1 µM): 97%; residual activity (TBK1 (human); compound 1.0 µM): 91%; residual activity (TBK1 (human); compound 10.0 µM): 56%
